Target: T1, hMAGL (Homo sapiens, UniProt Q99685)
T1 sequence (Q99685 1-303): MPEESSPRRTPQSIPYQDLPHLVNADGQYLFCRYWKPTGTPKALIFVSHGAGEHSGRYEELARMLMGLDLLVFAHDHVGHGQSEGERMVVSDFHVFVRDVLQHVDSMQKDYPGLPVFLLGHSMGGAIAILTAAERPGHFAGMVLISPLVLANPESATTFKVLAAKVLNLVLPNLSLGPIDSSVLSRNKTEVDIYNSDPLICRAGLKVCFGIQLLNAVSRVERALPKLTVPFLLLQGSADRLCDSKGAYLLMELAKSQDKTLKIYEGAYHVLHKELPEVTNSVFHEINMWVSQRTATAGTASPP
Test: 2-AG assay: MAGL inhibition, hydrolysis of 2-arachidonoylglycerol to arachidonic acid followed by mass spectrometry
Type: biochemical
Experimental: Compounds of formula (I) were profiled for MAGL inhibitory activity by determining the enzymatic activity by following the hydrolysis of the natural substrate 2-arachidonoylglycerol (2-AG) resulting in arachidonic acid, which can be followed by mass spectrometry. This assay is hereinafter abbreviated “2-AG assay”. The 2-AG assay was carried out in 384 well polypropylene assay plates. […] Compound dilutions were added to MAGL protein in assay buffer (50 mM TRIS, 1 mM EDTA, 0.01% (v/v) Tween-20, 2.5% (v/v) DMSO). After shaking, the plate was incubated for 15 min at RT. To start the reaction, 2-arachidonoylglycerol in assay buffer was added. The final concentrations in the assay was […] for MAGL protein and 8 μM 2-arachidonoylglyerol. After shaking and 30 min incubation at RT, the reaction was quenched by the addition of two assay volumes of acetonitrile containing 4 μM of d8-arachidonic acid. The amount of arachidonic acid formed was traced by an online SPE system (Agilent Rapidfire) coupled to a triple quadrupole mass spectrometer. A C18 SPE cartridge (Agilent G9205A) was used in an acetonitrile/water liquid setup. […] The activity of the compounds was calculated based on the ratio of intensities [arachidonic acid/d8-arachidonic acid].

Row | SMILES | IC50 [nM]
1 | O=C(N1CC2(CC(n3cnc(C4CC4)n3)C2)C1)N1CC2(CN(Cc3snnc3C3CCC3)C2)C1 [Example 77, [6-[(4-cyclobutylthiadiazol-5-yl)methyl]-2,6-diazaspiro[3.3]heptan-2-yl]-[6-(3-cyclopropyl-1,2,4-triazol-1-yl)-2-azaspiro[3.3]heptan-2-yl]methanone] | 1.62
2 | O=C(N1CC2(CC(n3cnc(C(F)(F)F)n3)C2)C1)N1CC2(CN(Cc3snnc3C3CC3)C2)C1 [Example 89, [6-[(4-cyclopropylthiadiazol-5-yl)methyl]-2,6-diazaspiro[3.3]heptan-2-yl]-[6-[3-(trifluoromethyl)-1,2,4-triazol-1-yl]-2-azaspiro[3.3]heptan-2-yl]methanone] | 312
3 | O=C(N1CC2(CC(Cc3cc(C4CC4)n[nH]3)C2)C1)N1CC2(CC(n3cnc(C4(O)CC4)n3)C2)C1 [Example 125, [6-[(3-cyclopropyl-1H-pyrazol-5-yl)methyl]-2-azaspiro[3.3]heptan-2-yl]-[6-[3-(1-hydroxycyclopropyl)-1,2,4-triazol-1-yl]-2-azaspiro[3.3]heptan-2-yl]methanone] | 2.25
4 | O=C(N1CC2(CC(n3cnc(C4CC4)n3)C2)C1)N1CC2(CN(Cc3cc[nH]n3)C2)C1 [Example 257, [6-(3-cyclopropyl-1,2,4-triazol-1-yl)-2-azaspiro[3.3]heptan-2-yl]-[6-(1H-pyrazol-3-ylmethyl)-2,6-diazaspiro[3.3]heptan-2-yl]methanone] | 1630
5 | O=C(N1CC2(CC(Cc3cnn4cc(C(F)(F)F)cnc34)C2)C1)N1CC2(CC(n3cnc(C4CC4)n3)C2)C1 [Example 360, [6-(3-cyclopropyl-1,2,4-triazol-1-yl)-2-azaspiro[3.3]heptan-2-yl]-[6-[[6-(trifluoromethyl)pyrazolo[1,5-a]pyrimidin-3-yl]methyl]-2-azaspiro[3.3]heptan-2-yl]methanone] | 0.3
6 | O=C(N1CC2(CC(n3cnc(C4CC4)n3)C2)C1)N1CC2(CN(Cc3cnc(C(F)F)s3)C2)C1 [Example 279, [6-(3-cyclopropyl-1,2,4-triazol-1-yl)-2-azaspiro[3.3]heptan-2-yl]-[6-[[2-(difluoromethyl)thiazol-5-yl]methyl]-2,6-diazaspiro[3.3]heptan-2-yl]methanone] | 9.22

The next lines start with the values.

Row | IC50 [nM] | SMILES
7 | 0.41 | Cn1ncc(C(F)(F)F)c1CN1CCC2(CC1)CN(C(=O)N1CC3(CC(n4cnc(C5CC5)n4)C3)C1)C2 [Example 66, [6-(3-cyclopropyl-1,2,4-triazol-1-yl)-2-azaspiro[3.3]heptan-2-yl]-[7-[[2-methyl-4-(trifluoromethyl)pyrazol-3-yl]methyl]-2,7-diazaspiro[3.5]nonan-2-yl]methanone]
8 | 1.52 | O=C(N1CC2(CC(n3cnc(C4CC4)n3)C2)C1)N1CC2(CN(Cc3ncc(C(F)(F)F)s3)C2)C1 [Example 150, [6-(3-cyclopropyl-1,2,4-triazol-1-yl)-2-azaspiro[3.3]heptan-2-yl]-[6-[[5-(trifluoromethyl)thiazol-2-yl]methyl]-2,6-diazaspiro[3.3]heptan-2-yl]methanone]
9 | 311 | Cc1onc(C2CC2)c1CN1CC2(C1)CN(C(=O)N1CC3(CC(n4cnc(C5(O)CC5)n4)C3)C1)C2 [Example 269, [6-[(3-cyclopropyl-5-methyl-isoxazol-4-yl)methyl]-2,6-diazaspiro[3.3]heptan-2-yl]-[6-[3-(1-hydroxycyclopropyl)-1,2,4-triazol-1-yl]-2-azaspiro[3.3]heptan-2-yl]methanone]
10 | 190 | O=C(N1CC2(CC(n3cnc(C(F)F)n3)C2)C1)N1CC2(CN(Cc3cc(C(F)(F)F)n[nH]3)C2)C1 [Example 311, [6-[3-(difluoromethyl)-1,2,4-triazol-1-yl]-2-azaspiro[3.3]heptan-2-yl]-[6-[[3-(trifluoromethyl)-1H-pyrazol-5-yl]methyl]-2,6-diazaspiro[3.3]heptan-2-yl]methanone]

From US20260374756A1, “HETEROCYCLIC COMPOUNDS AS INHIBITORS OF MONOACYLGLYCEROL LIPASE (MAGL)” (Hoffmann-La Roche Inc., priority 2022, published 2026)
